Each structure is given as a SMILES string. Where “and” joins values, the source holds several entries; their conditions need not be identical. Equal values may be shown once. Entries after “also recorded” stand apart in the source; their conditions may differ.

Results on four compounds are retold here after article PMC6828666, “Discovery of holoenzyme-disrupting chemicals as substrate-selective CK2 inhibitors” (Scientific Reports, 2019).

Test [1] deals with T1, CK2α2β2 holoenzyme (Homo sapiens, UniProt P68400).
T1 construct: made in house; host or cells: Escherichia coli (CK2α)
Nature of the test: CK2 kinase assay with CK2β-dependent peptide substrate (eIF2-derived). The format is biochemical. Particulars: for IC50: phosphorylation of CK2β-dependent peptide substrate. As for the experimental part: First, all the compounds were dissolved at 200 μM in 50 mM Tris-HCl pH 7.5 buffer containing 0.1 M NaCl and 5% DMSO; the compounds that precipitated under these conditions were discarded. The 32 remaining compounds were diluted at 200 μM in the kinase buffer and centrifuged at 14,000 g. The supernatant was then assayed for ability to inhibit phosphorylation of a CK2β-dependent peptide substrate. For this, a 22-residue long N-terminal fragment of the eukaryotic translation initiation factor 2 (eIF2), known to be exclusively phosphorylated by the CK2α2β2 holoenzyme[4] was used as a substrate. […]
Final concentration of ATP was 100 μM. Assays were performed under linear kinetic conditions for 5 min at room temperature before termination by the addition of 60 μL of 4% TCA. ^32P incorporation in peptide substrate was determined as previously described. […]

The subject of test [2] is p21 phosphorylation at Thr145 in MCF10A cells. Put plainly: Western blot of p21 Thr145 phosphorylation. The format is cell-based, human. Particulars: 24 h. As for the experimental part:
(§1) Figure 5 Cellular effects of compounds 3, 4 and 6. MCF10A cells were incubated for 24 h with either DMSO or 30 μM TAT or 30 μM TAT-Pc or 25 μM 6 (a) or with increasing concentrations of 6 (b) or 3 (c). MCF10A cells were incubated for 48 h with either DMSO or with increasing concentrations of 3 or 6 (d). Cells were then lysed and analyzed by western blot with the indicated antibodies. Blot images are representative of at least three independent experiments. Uncropped blots are shown in Supplementary Fig. S16. (e) MDA-MB231 cells were treated with 40 μM 6 (⚬), 4 (▴) or 3 (X). (f) MDA-MB231 cells were treated for 30 h with increasing concentrations of 6 (⚬) or 4 (▴). Insert: cells were treated for 30 h with 80 μM 6 or 10 μM CX-4945. (g) Cells were incubated with 80 μM 6 or 4 in the absence or presence of 20 μM Z-VAD. […] (h) MDA-MB231 cells (⚬) or MCF10A cells (⦁) were incubated for 24 h with 80 μM 6. Cell death was automatically quantified from images captured every 3 h for the duration of the experiments using an Essen IncuCyte Zoom live-cell microscopy incubator. Error bars represent the SEM of two biological replicates derived from technical triplicates.
Cells were lysed in RIPA buffer (10 mM Tris-HCl pH 7.4, 150 mM NaCl, 1% Triton X-100, 0.1% SDS, 0.5% DOC and 1 mM EDTA) containing both protease- and phosphatase-inhibitor cocktails (Sigma-Aldrich; P8340, P2850, P5726). Cell homogenates were quantified using BCA protein Assay kit (Thermo Scientific). SDS-PAGE was performed using pre-cast 4–12% gradient gel (Bio-Rad) and submitted to electrophoresis in NuPAGE buffer (150 V for 75 min). Separated proteins at 20 μg/lane were transferred to PVDF membranes (100 V for 60 min). […] Luminata Forte Western HRP substrate (Millipore) was added and membranes were read with Fusion Fx7 (PerkinElmer). […] Images were analyzed and band intensities were quantified using ImageJ software. […]

Test [3] relates to MDA-MB231 cells. Put plainly: Cell death by propidium iodide live-cell imaging (IncuCyte). The format is cell-based. The settings on record: for effect of pan-caspase inhibitor Z-VAD on compound-induced cell death: 80 μM compound, 20 μM Z-VAD. How it is done:
as §1
Cells grown on 96-well flat-bottomed plates (Corning Falcon) were tracked using an Essen IncuCyte Zoom live-cell microscopy instrument, an automated live cell imager with high-throughput capabilities and built-in data analysis. Experiments were conducted at 37 °C and 5% CO2. The software incorporated into the IncuCyte Zoom was used to analyze the images.
Cells plated at equal density (2 × 10^4 cells/well) were treated with the indicated inhibitors in cell culture medium containing 0.5 μg/ml Propidium iodide (Sigma-Aldrich). Images of PI-stained red fluorescent cells were captured every 3 h for the duration of the experiment. For apoptosis detection, 50 μL/mL fluorochrome-conjugated Annexin V (Molecular Probes) was added to the medium together with Propidium iodide and apoptotic cell numbers were calculated.

Test [4] deals with T2, CK2 holoenzyme complexes in MCF10A cells (Homo sapiens, UniProt P68400).
T2 construct: endogenous in cells; host or cells: MCF10A
Nature of the test: In situ proximity ligation assay (PLA). Format: cell-based. Particulars: 50 μM, 3 h, DMSO control 16 ± 4. As for the experimental part: In situ PLAs were performed using a Duolink kit (Olink Bioscience, Uppsala, Sweden) according to the manufacturer’s instructions with few modifications. MCF10A cells were fixed in 4% paraformaldehyde for 10 min. The cells were then permeabilized with 0.1% Triton in Tris-buffered saline (TBS; 50 mM Tris, pH 7.6, 150 mM NaCl) and incubated with 100 mM glycine in phosphate-buffered saline (137 mM NaCl, 2.7 mM KCl, 10 mM Na2 HPO4, and 1.8 mM KH2 PO4, pH 7.4) for 20 min. Permeabilized cells were incubated overnight at 4 °C with primary antibodies diluted as follows: mouse CK2α 1:250 and rabbit CK2β 1:50. Cells were washed three times in TBS with 0.05% Tween-20 for 5 min each with gentle agitation. Secondary antibodies conjugated with oligonucleotides, PLA probe anti-mouse MINUS and PLA probe anti-rabbit PLUS, were added to the cells and incubated for 90 min at 37 °C in a humidity chamber. Finally, after ligation and amplification steps, cells were counterstained with the DNA-binding dye Hoechst and Phaloïdine-488 for actin staining (Molecular Probes, Thermo Fisher Scientific, Courtaboeuf, France). Images were observed using a Zeiss Apotome microscope and analyzed using a Zen Pro imaging software (Zeiss, Oberkochen, Germany). Quantification was performed using the BlobFinder software (V3.2, Swedish University of Agricultural Sciences, Uppsala University)[67]. […]

Setting [5] is: compound at 50 μM, CK2β-dependent peptide substrate.

T1 sequence (P68400 whole entry): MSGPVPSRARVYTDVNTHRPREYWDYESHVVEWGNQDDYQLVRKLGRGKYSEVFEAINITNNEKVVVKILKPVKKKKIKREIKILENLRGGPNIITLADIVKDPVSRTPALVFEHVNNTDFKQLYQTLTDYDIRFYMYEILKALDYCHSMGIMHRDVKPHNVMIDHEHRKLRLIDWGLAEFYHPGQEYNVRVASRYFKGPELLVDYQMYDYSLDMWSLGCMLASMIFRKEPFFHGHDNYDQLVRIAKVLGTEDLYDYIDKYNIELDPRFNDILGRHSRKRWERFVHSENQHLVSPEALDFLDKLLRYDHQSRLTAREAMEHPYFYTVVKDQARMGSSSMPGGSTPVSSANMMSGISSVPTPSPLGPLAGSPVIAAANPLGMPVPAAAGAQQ
T2 sequence (P68400 whole entry, one chain of several): as the sequence (P68400 whole entry) above

Take `COc1[nH]c2ccc(F)cc2c1C(=O)OCC1CCN(CCNS(C)(=O)=O)CC1` [Compound 1]: in test [1] (0.01% vol/vol Triton X-100, 50 μM compound), the “inhibition of CK2β-dependent phosphorylation upon addition of Triton X-100” value is reported as “not affected”. Besides, testing at 50 µM in test [1] (setting [5]) gave an inhibition of 48%. For the same compound, the reversibility of inhibition result in test [1] (dilution of the reaction mixture or gel filtration) is given as “reversed”. The IC50 (as a rule, the concentration at which inhibition is half-maximal) in test [1] is ~50 µM and 50 µM.

With `CS(=O)(=O)NCCN1CCC(COC(=O)c2c[nH]c3ccccc23)CC1` [Compound 3, (1-(2-(Methylsulfonamido)ethyl)piperidin-4-yl)methyl 1H-indole-3-carboxylate], in test [2] (100 μM), the p21 phosphorylation entry was “moderate increase”. 50 µM produced 28% inhibition in test [1] (setting [5]). For the same compound, the cell death result in test [3] (MDA-MB231, 40 μM) is recorded as “without effect”.

Regarding `O=C(OCC1CCN(CCNS(=O)(=O)c2ccccc2)CC1)c1c[nH]c2ccccc12` [Compound 4, (1-(2-(Phenylsulfonamido)ethyl)piperidin-4-yl)methyl 1H-indole-3-carboxylate], the inhibition (as a rule, the relative decrease from the control value, in per cent) at 50 µM in test [1] (setting [5]) amounted to 57%. Also, the IC50 in test [1] amounted to 45 µM. In test [4], the “CK2 holoenzyme complexes (PLA dots)” value is 8 ± 2 dots/cell. Also, the “effect of pan-caspase inhibitor Z-VAD on compound-induced cell death” value in test [3] was “not significantly affected”. The “time to retraction of membrane extension by the majority of cells” value in test [3] (MDA-MB231, 40 μM) is on record as 9 h. Moreover, the “concentration at which cell death was already detectable” value in test [3] (MDA-MB231, 30 h) was 20 µM. The cell death entry in test [3] (MDA-MB231, 30 h, 80 μM) is on record as “massive”.

In the case of `COc1[nH]c2ccc(F)cc2c1C(=O)OCC1CCN(CCNS(=O)(=O)c2ccccc2)CC1.Cl` [Compound 6], the “concentration at which p21 Thr145 phosphorylation reaches the maximum” value in test [2] came out at 20 µM. In addition, the “p21 Thr145 phosphorylation” value in test [2] (increasing concentrations) is listed as “striking dose-dependent increase”. The “Inhibition % at 50 μM” value in test [1] (setting [5]) turned out to be 80%. Further, the “CK2 holoenzyme complexes (PLA dots)” value in test [4] is listed as 6 ± 2 dots/cell. Also, the “effect of pan-caspase inhibitor Z-VAD on compound-induced cell death” value in test [3] is given as “significantly affected; also recorded: significantly attenuated”. Besides, in test [3] (80 μM, 24 h), the “sensitivity of MDA-MB231 cells to compound-mediated cell death compared with MCF10A cells” value is “much more sensitive”. In addition, the “time to retraction of membrane extension by the majority of cells” value in test [3] (MDA-MB231, 40 μM) stood at 9 h. For the same compound, in test [3] (MDA-MB231, 30 h), the “concentration at which cell death was already detectable” value is 20 µM. For the same compound, in test [3] (MDA-MB231, 30 h, 80 μM), the cell death result is reported as “massive”.
